One data set has as its system HIV-1IIIB (wild type). Nature of the data set: Antiviral activity in cell culture (XTT assay in MT-4 cells). Particulars: Human immunodeficiency virus 1, MT4, read-out: ED50 (μM). Type of data set: cell-based. As for the experimental part: Compounds of the invention are assayed for HIV activity, for example using multiple determinations with XTT in MT-4 cells (Weislow et al, J Nat Cancer Inst 1989, vol 81 no 8, 577 et seq), preferably including determinations in the presence of 40-50% human serum to indicate the contribution of protein binding. In short the XTT assay uses human T cell line MT4 cells grown in RPMI 1640 medium supplemented with 10% fetal calf serum (or 40-50% human serum as appropriate), penicillin and streptomycin seeded into 96 well microplates (2·10^4 cells/well) infected with 10-20 TCID50 per well of HIV-1IIIB (wild type) or mutant virus, such as those bearing RT Ile 100, Cys 181 or Asn 103 mutations. Serially diluted test compounds are added to respective wells and the culture incubated at 37° C. in a CO2 enriched atmosphere and the viability of cells is determined at day five or six with XTT vital dye. Results are typically presented as ED50 μM.
Exp. Med. Biol., 1998, 436, 99-103. […] Agents Chemother., 1997, 41, 2383-2388.

For data set [1] the following is noted: cited from earlier work.
The target of data set [2] is T1, HIV-1 protease (Human immunodeficiency virus type 1 group M subtype B, UniProt P04585). Particulars: Enzyme Inhibition.
In data set [3] the target is T1, HIV-1 protease. Nature of the data set: biochemical.
For data set [4], the system named is cytochrome P450 3A enzyme. Particulars: inhibitor of the cytochrome P450 3A enzyme; cited from earlier work.

pKi: −log10 of the molar value. Read-outs that look alike come from different tables or passages of the source.

As to `COC(=O)N[C@H](C(=O)NN(Cc1ccc(Br)cc1)C[C@@](O)(Cc1ccccc1)C(=O)N[C@H]1c2ccccc2C[C@H]1O)C(C)(C)C` [Compound 19, {(1S)-1-[N′-(4-Bromo-benzyl)-N′-((2S)-2-hydroxy-2-((1S,2R)-2-hydroxy-indan-1-ylcarbamoyl)-3-phenyl-propyl)-hydrazinocarbonyl]-2,2-dimethyl-propyl}-carbamic acid methyl ester], the EC50 in the data set with HIV-1IIIB (wild type) is below 2 µM.
On to `Cc1c(O)cccc1C(=O)N[C@@H](CSc1ccccc1)[C@H](O)CN1C[C@H]2CCCC[C@H]2C[C@H]1C(=O)NC(C)(C)C` [nelfinavir], for which the “increase the exposure of saquinavir” value in data set [1] (saquinavir dosed at 1200 mg thrice-daily (TID), at steady-state) is 392%.
For the molecule “{(1S)-1-[N′-(4-Bromo-benzyl)-N′-((2S)-2-hydroxy-2-((1S,2R)-2-hydroxy-indan-1-ylcarbamoyl)-3-phenyl-propyl)-hydrazinocarbonyl]-2-methyl-propyl}-carbamic acid benzyl ester [Compound 20]”, the pKi at HIV-1 protease [2] was 7.30 to 7.96.
For the molecule `CC(C)(C)[C@H](NC(=O)NCc1ccccc1)C(=O)NN(Cc1ccccc1)C[C@@](O)(Cc1ccccc1)C(=O)N[C@H]1c2ccccc2C[C@H]1O` [Compound 18, (2S)-2-Benzyl-3-{N-Benzyl-N′-[(2S)-2-(3-benzyl-ureido)-3,3-dimethyl-butyryl]-hydrazino}-2-hydroxy-N-((1S,2R)-2-hydroxy-indan-1-yl)-propionamide], the negative logarithm of the Ki (pKi) at HIV-1 protease [3] is 7.30 to 7.96.
Same read-out and setting: for `CC(C)(C)[C@H](NC(=O)OCc1ccccc1)C(=O)NN(Cc1ccccc1)C[C@@](O)(Cc1ccccc1)C(=O)N[C@H]1c2ccccc2C[C@H]1O` [Compound 13, {(1S)-1-[N′-Benzyl-N′-((2S)-2-hydroxy-2-((1S,2R)-2-hydroxy-indan-1-ylcarbamoyl)-3-phenyl-propyl)-hydrazinocarbonyl]-2,2-dimethyl-propyl}-carbamic acid benzyl ester] the value was 7.30 to 7.96.
As for `COC(=O)N[C@H](C(=O)NN(Cc1ccccc1)C[C@@](O)(Cc1ccccc1)C(=O)N[C@H]1c2ccccc2C[C@H]1O)C(C)(C)C` [Compound 15, {(1S)-1-[N′-Benzyl-N′-((2S)-2-hydroxy-2-((1S,2R)-2-hydroxy-indan-1-ylcarbamoyl)-3-phenyl-propyl)-hydrazinocarbonyl]-2,2-dimethyl-propyl}-carbamic acid methyl ester], on HIV-1 protease [3], the pKi was above 8.00. Moreover, the EC50 in the data set with HIV-1IIIB (wild type) was 2 to 10 µM.
For the molecule `COC(=O)N[C@H](C(=O)N[C@@H](Cc1ccccc1)[C@@H](O)CN(Cc1ccc(-c2ccccn2)cc1)NC(=O)[C@@H](NC(=O)OC)C(C)(C)C)C(C)(C)C` [Atazanavir, atazanavir], the “increase in exposure (saquinavir)” value in data set [1] (due to combination with atazanavir, multiple-dose pharmacology study) was “greater than 3 fold”. The pKi in data set [4] is 5.62.
For `CC(C)(C)[C@H](NS(C)(=O)=O)C(=O)NN(Cc1ccccc1)C[C@@](O)(Cc1ccccc1)C(=O)N[C@H]1c2ccccc2C[C@H]1O` [Compound 17, (2S)-2-Benzyl-3-[N-benzyl-N′-((2S)-2-methanesulfonylamino-3,3-dimethyl-butyryl)-hydrazino]-2-hydroxy-N-((1S,2R)-2-hydroxy-indan-1-yl)-propionamide], the negative-log Ki (pKi) on HIV-1 protease [3] was 7.00 to 7.30.
Molecule `COC(=O)N[C@H](C(=O)NN(Cc1ccccc1)C[C@@](O)(Cc1ccccc1)C(=O)N[C@H]1c2ccccc2C[C@H]1O)C(C)C` [Compound 14, {(1S)-1-[N′-Benzyl-N′-((2S)-2-hydroxy-2-((1S,2R)-2-hydroxy-indan-1-ylcarbamoyl)-3-phenyl-propyl)-hydrazinocarbonyl]-2-methyl-propyl}-carbamic acid methyl ester] showed a negative-log Ki (pKi) at HIV-1 protease [3] above 8.00. The EC50 in the data set with HIV-1IIIB (wild type) is 2 to 10 µM.
With `CC(C)[C@H](NC(=O)OCc1ccccc1)C(=O)NN(Cc1ccccc1)C[C@@](O)(Cc1ccccc1)C(=O)N[C@H]1c2ccccc2C[C@H]1O` [Compound 11, {(1S)-1-[N′-Benzyl-N′-((2S)-2-hydroxy-2-((1S,2R)-2-hydroxy-indan-1-ylcarbamoyl)-3-phenyl-propyl)-hydrazinocarbonyl]-2-methyl-propyl}-carbamic acid benzyl ester], the pKi at HIV-1 protease [3] is 7.30 to 7.96.

For orientation: pKi means the negative decadic logarithm of the Ki, by convention in mol/L.

Source of the values: US7807677B2, “HIV protease inhibitors” (Medivir AB, priority 2005, dated 2010).
